Measurements published in paper PMC2788660 (Journal of medicinal chemistry, 2009).
Values belong to the compound of their own block, whether it stands above or below them. Square brackets hold non-standard residues; d marks the D form. Peptide text beside a SMILES is read from it. * marks the point of attachment. 1Nal = N[C@@H](Cc1cccc2ccccc12)C(=O)O; Asu = N[C@@H](CCCCCC(=O)O)C(=O)O; β3hL = CC(C)C[C@H](N)CC(=O)O; CH2CH2COOH = O=C(O)CC*

Experiments:
HDAC6 = target: T1, HDAC6 (Homo sapiens, UniProt Q9UBN7)
T1 sequence (Q9UBN7 1-1215): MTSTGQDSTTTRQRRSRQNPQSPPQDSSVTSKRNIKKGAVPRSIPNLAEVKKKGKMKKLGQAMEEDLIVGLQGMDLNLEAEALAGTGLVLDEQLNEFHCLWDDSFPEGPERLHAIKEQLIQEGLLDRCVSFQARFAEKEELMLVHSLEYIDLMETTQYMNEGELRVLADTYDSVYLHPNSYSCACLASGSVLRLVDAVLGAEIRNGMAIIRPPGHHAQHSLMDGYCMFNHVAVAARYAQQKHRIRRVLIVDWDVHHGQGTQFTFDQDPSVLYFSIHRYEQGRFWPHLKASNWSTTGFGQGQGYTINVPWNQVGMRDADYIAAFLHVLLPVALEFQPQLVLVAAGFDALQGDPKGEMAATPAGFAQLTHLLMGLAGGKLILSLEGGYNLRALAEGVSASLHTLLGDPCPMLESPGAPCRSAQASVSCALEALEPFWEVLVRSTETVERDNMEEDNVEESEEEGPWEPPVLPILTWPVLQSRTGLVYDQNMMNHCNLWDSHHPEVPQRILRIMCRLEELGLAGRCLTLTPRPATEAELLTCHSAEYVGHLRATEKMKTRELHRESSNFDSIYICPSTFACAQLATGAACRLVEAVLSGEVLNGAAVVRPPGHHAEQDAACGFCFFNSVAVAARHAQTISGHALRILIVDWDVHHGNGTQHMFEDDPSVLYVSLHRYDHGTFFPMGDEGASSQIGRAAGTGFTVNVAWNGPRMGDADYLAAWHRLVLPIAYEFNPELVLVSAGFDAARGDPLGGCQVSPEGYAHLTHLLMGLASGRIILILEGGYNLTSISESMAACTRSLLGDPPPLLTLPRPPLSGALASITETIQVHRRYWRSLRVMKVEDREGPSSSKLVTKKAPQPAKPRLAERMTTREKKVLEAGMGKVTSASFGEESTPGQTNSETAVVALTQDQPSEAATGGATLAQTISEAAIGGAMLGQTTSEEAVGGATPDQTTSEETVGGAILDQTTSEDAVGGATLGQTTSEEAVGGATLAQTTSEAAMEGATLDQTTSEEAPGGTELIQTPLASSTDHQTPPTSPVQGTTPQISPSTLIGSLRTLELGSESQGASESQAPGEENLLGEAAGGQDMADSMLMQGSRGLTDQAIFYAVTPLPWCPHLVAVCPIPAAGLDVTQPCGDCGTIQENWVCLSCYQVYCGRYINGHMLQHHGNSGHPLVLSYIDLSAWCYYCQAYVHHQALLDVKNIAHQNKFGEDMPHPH

HDAC1 = HDAC1 (Homo sapiens, UniProt Q13547); details: relative to 3a
HDAC8 = target: T2, HDAC8 (Homo sapiens, UniProt Q9BY41); details: relative to 3a
T2 sequence (Q9BY41 1-377): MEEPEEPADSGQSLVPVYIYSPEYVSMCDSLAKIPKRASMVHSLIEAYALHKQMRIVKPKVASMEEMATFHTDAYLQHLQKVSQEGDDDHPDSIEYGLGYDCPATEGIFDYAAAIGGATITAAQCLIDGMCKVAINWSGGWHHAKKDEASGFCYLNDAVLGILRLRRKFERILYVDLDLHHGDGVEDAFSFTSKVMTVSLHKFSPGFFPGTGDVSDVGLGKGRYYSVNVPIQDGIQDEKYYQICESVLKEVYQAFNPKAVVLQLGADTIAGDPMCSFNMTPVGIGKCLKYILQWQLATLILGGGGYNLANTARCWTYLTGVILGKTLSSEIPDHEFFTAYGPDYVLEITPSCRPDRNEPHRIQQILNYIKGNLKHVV

HDAC1, sequence (Q13547 whole entry): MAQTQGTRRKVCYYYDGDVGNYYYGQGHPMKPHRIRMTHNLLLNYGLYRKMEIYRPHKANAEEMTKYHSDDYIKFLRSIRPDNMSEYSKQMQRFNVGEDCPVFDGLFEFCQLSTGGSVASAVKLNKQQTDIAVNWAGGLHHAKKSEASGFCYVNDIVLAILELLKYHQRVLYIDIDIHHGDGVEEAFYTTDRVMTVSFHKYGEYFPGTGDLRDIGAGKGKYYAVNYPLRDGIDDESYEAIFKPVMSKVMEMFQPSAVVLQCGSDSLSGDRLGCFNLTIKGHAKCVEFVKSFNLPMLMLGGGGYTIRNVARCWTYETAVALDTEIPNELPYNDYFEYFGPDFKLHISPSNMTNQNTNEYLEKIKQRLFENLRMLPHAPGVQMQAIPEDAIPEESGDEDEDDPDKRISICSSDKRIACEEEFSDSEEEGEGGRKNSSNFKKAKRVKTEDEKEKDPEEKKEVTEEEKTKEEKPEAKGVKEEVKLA

SMILES: CCC(=O)CCCCC[C@@H]1NC(=O)[C@H]2CCCCN2C(=O)[C@H]([C@@H](C)CC)NC(=O)[C@H](Cc2cn(OC)c3ccccc23)NC1=O [1a, apicidin, reference compound]
HDAC6 inhibition (in words) (HDAC6): did not inhibit HDAC6 in the concentration range tested

decrease in potency against HDAC1, 3a vs. 4c (HDAC1): ~ 40 fold | decrease in potency against HDAC8, 3a vs. 4c (HDAC8): ~ 3 fold
SMILES: CC(C)C[C@H]1CC(=O)N[C@@H](C)C(=O)N[C@@H](CSCCC(=O)O)C(=O)N[C@@H](Cc2c[nH]c3ccccc23)C(=O)N1 [4c] (cyclo(C(CH2CH2COOH)W[β3hL]A); ring closure inferred)

SMILES: CC(C)C[C@H]1CC(=O)N[C@@H](CCCNC(=N)N)C(=O)N[C@@H](CCCCCC(=O)O)C(=O)N[C@@H](Cc2cccc3ccccc23)C(=O)N1 [compound 17, c[Asu-Nal-β^3Leu-Arg]] (cyclo([Asu][1Nal][β3hL]R); ring closure inferred)
fold more potent against HDAC6 compared to Ala–aa4 analog (8b) (HDAC6): 3–4 fold
